Test results as given in US8501166B2, “Pyrimidinyl indole compounds” (Hutchison Medipharma Limited, priority 2010, dated 2013).
Structures can show the parent of a compound that is named as a salt.

Tests used:
[1] = test system: LPS-induced plasma TNFα production; assay: LPS-induced plasma cytokine production in mouse, TNFα; assay type: in vivo, Balb/c mice
Procedure: Balb/c mice (female, body weight from 18 to 20 g) are used in these experiments. The dose dependency, time course study and pharmacokinetic/pharmacodynamic relationship of the test compound are conducted in mice treated with LPS (0.4 mg/kg).
Eight mice/group are administrated with 1 to 100 mg/kg of either the test compound (suspension in 10% acacia) or vehicle by oral gavage at 1 h prior to intraperitoneal injection of 0.4 mg/kg LPS. Ninety minutes after LPS administration, blood samples are collected in tubes containing heparin for anticoagulation. Plasma samples are diluted 3-fold with dilution buffer (R&D, Cat.No. Part 895206, Calibrator Diluent RD5Z). TNFα levels are measured using ELISA kit (R&D, Cat.No. MTA00) based on manufacture's protocol. Data is acquired using a SPECTRAMAX® M2e Plus Plate Reader and analyzed by standard curve fitting.
Alternately, the compound is screened for its ability to inhibit the LPS-induced cytokine production in rat plasma according to the method reported in the literature (Ziegelbauer K, Gantner F, Lukacs N W, et al. Br J. Pharmacol. 2005,145(2):178-92). Briefly, Lewis rats (male, body weight 140 g-180 g) are used in the experiments. Animals (8/group) are given 1 to 100 mg/kg of the testing compound (suspension in 35% solutol & 60% PEG400 & 5% PG) or vehicle by oral gavage at 1 h prior to intraperitoneal administration of LPS 0.4 mg/kg. Ninety minutes after the intraperitoneal administration of LPS, blood is collected in heparin anticoagulated tubes to measure TNFα using R&D System ELISA Kit based on the general Kit protocols. The plasma sample is diluted 100 fold with the dilution buffer and 50 μL of diluted sample is used in each measurement. The plate is read on a SPECTRAMAX® M2e Plus Plate Reader and TNFα levels are analyzed based on the standard curve. The drug levels in plasma are measured with LC-MS-MS. […] Alternately, the compound is screened for its ability to inhibit the LPS-induced cytokine production in mouse plasma. Balb/c mice (female, body weight 18-20 g) are used in the experiments. Mice (8/group) are administrated with 1 to 100 mg/kg of the test compound (suspension in 10% acacia) or vehicle by oral gavage at 1 h prior to introperitoneal (i.p.) administration of LPS (0.4 mg/kg). Ninety minutes after LPS administration, blood is collected with heparin anticoagulated tubes to measure TNFα levels (R&D, Cat.No. MTA00), IL-6 (R&D, Cat.No. M6000B) and IL-1β (R&D, Cat.No. MLB00B) based on the general kit protocols. Diluted or undiluted plasma samples of 50 μL are used for each measurement. […] The plate is read on a SPECTRMAX® M2e Plus Plate Reader and the data is analyzed using a standard curve.

[2] = test system: TNFα gene expression in U87MG xenograft; assay: Inhibition of TNFα induced TNFα gene expression in U87MG xenograft; assay type: in vivo, Balb/c athymic nude mice
Procedure: TNFα stimulates IKKβ signaling and triggers TNFα gene expression. In order to confirm that a compound is targeting IKKβ in vivo, the compound is screened for its ability to inhibit TNFα induced TNFα gene expression in a U87MG (human glioblastoma cell line) xenograft. 3×10^6 U87MG tumor cells are implanted subcutaneously into the right lateral flank of female Balb/c athymic nude mice (6-8 weeks old). […] Nude mice are orally administered with the test compound at 2 h prior to tumor harvesting. TNFα (R&D, Cat: 210-TA) is intravenously injected at 1 h before tumor harvesting at 8 μg/kg.
Total RNA is extracted using the RNEASY® mini Kit (QIAGEN®, Cat: 74126). cDNA is synthesized using the High Capacity cDNA reverse transcription kit (ABI, Cat: 4368813). Quantitative real-time PCR is carried out in a 7500 real-time PCR system (Applied Biosystems) using the corresponding primers/probes for human GAPDH gene(ABI Hs99999905_ml) and human TNFα gene(ABI Hs00174128_ml) and ABgene Absolute QPCR ROX 2× master mix(AB-1139/B).
TNFα gene expression is normalized to β-actin gene expression. The gene counts are read from PCR machine Inhibition (%)=(Counts of Model—Counts of Treatment)/(Counts of Model-Counts of Control)×100%. Example 1 is specifically detailed in Table 3.

[3] = test system: OVA-induced airway inflammation; assay: Ovalbumin (OVA)-induced pulmonary inflammation in mice; assay type: in vivo, Balb/c mice
Procedure: A compound of the present invention is tested in an OVA-induced pulmonary inflammation model in mice essentially as described in a method reported in the literature (Muriel Pichavant, Sho Goya, Eckard Hamelmann, Erwin W. Gelfand, and Dale T. Umetsu. Animal Models of Airway Sensitization. Current Protocols in Immunology. (1999) 15.18.1-15.18.13). Briefly, female Balb/c mice weighing from 18 to 20 g are sensitized by introperitoneal injection of 100 μL of saline containing 20 μg of OVA and 2 mg of aluminum hydroxide on day 1 and 14. On days 28, 29 and 30, mice are challenged once each by aerosolizing 1% ovalbumin (OVA) in phosphate buffered saline (PBS) for 20 minutes with Buxco Mass Dosing System. […] On day 32, animals from each group are anesthetized with 1% of pentobarbital sodium. The thoracic and abdominal cavities are opened and plasma is collected from centrifuged specimens. The trachea is then dissected and transected. Through the insertion of an 18-gauge catheter into the trachea, the lungs are lavaged with a total of 1.5 mL of sterile PBS and then placed into a specimen container. Cell-free BAL supernatants are obtained by centrifugation of BAL fluids. All serum and BAL supernatants are stored at −80° C. until use. Differential cell counts are performed on cytospin preparations of BAL cells for cell counting and cytokine determination. After the collection of BAL supernatants, the lungs of recipient mice are removed en bloc and fixed by an intratracheal instillation of 10% buffered formalin (in PBS). Three to six paraffin sections are obtained from the perihilar regions of recipient lungs, stained with hematoxylin and eosin, and examined under light microscopy for pathological study.

[4] = mouse, oral 1 h before LPS 0.4 mg/kg i.p.

EC50 [1, 4]	Structure (SMILES)	ED50 [1, 4]	Inhibition Rate (%) of TNFα induced TNFα gene expression ([2]; Table 4, 3 mg/kg oral)	Inhibition Rate (%) of TNFα induced TNFα gene expression ([2]; Table 4, 10 mg/kg oral)	Inhibition Rate (%) of TNFα induced TNFα gene expression ([2]; Table 4, 30 mg/kg oral)	Inhibition Rate (%) of TNFα induced TNFα gene expression ([2]; Table 4, 60 mg/kg oral)	decrease of eosinophil cell numbers ([3]; 1 mg/kg (bid))	decrease of eosinophil cell numbers ([3]; 3 mg/kg (bid))	decrease of eosinophil cell numbers ([3]; 10 mg/kg (bid), p<0.05)	reduction of IL-13 production ([3]; 10 mg/kg, p<0.05)	decrease of eosinophil cell numbers ([3]; 30 mg/kg (bid), p<0.05)	reduction of IL-13 production ([3]; 30 mg/kg, p<0.01)	lung histology, hematoxylin and eosin stains ([3]; Example 2 at 1 to 30 mg/kg)	plasma TNFα level ([1]; 10 mg/kg oral 1 h before LPS 0.4 mg/kg, 90 min after LPS, baseline 2346.2 pg/mL)	inhibition at 10 mg/kg ([1]; Mus musculus, 10 mg/kg oral 1 h before LPS 0.4 mg/kg, p<0.01)	Inhibition Rate (%) of TNFα induced TNFα gene expression ([2]; 10 mg/kg oral, 2 h)	Inhibition Rate (%) of TNFα induced TNFα gene expression ([2]; 30 mg/kg oral, 2 h)	Inhibition Rate (%) of TNFα induced TNFα gene expression ([2]; 60 mg/kg oral, 2 h)	Inhibition Rate (%) of TNFα induced TNFα gene expression ([2]; 100 mg/kg oral, 2 h)
~2.42 µg/mL	Cl.O=C(NC1CC1)c1cccc2[nH]c(-c3nc(N[C@@H]4CCC[C@H]4O)ncc3Cl)cc12 [Example 2, 2-{5-Chloro-2-[(1R,2R)-2-hydroxycyclopentylamino]pyrimidin-4-yl}-N-cyclopropyl-1H-indole-4-carboxamide hydrochloride]	4.84 mg/kg	10.7%	25.3%	69.7%	87.8%	58.6%	49.3%	94.1%	73.0%	90.2%	85.1%	improvement in pulmonary inflammation	–	–	–	–	–	–
–	O=C(NC1CC1)c1cccc2[nH]c(-c3nc(N[C@@H]4CCC[C@@H]4O)ncc3Cl)cc12 [Example 1, 2-{5-Chloro-2-[(1R,2S)-2-hydroxycyclopentylamino]pyrimidin-4-yl}-N-cyclopropyl-1H-indole-4-carboxamide hydrochloride]	–	–	–	–	–	–	–	–	–	–	–	–	1474.9 pg/mL	37.1%	49.1%	68.5%	86.2%	94.9%
